From patent US8173689B2 (Novartis AG, priority 2006, dated 2012)
Like-named read-outs stand apart in the source and are kept apart here.

Key:
kinase domain of PDGFRβ = target: T1, kinase domain of PDGFRβ (Homo sapiens, UniProt P09619); experiment: Inhibition of PDGFRb kinase signaling in an in vitro biochemical assay (alphascreen); conditions: tested at about 1 μM, read-out: PDGFRβ percent inhibition
T1 construct: The kinase domain of PDGFRβ was assayed in 50 mM Hepes; purchased Invitrogen P3082

[1] = target: T2, cytoplasmic domain of the human CSF-1R (Homo sapiens, UniProt P07333); experiment: In vitro kinase assay for colony stimulating factor-1 receptor (AlphaScreen); assay type: biochemical; conditions: tested at about 1 μM, read-out: CSF-1R percent inhibition
T2 construct: Recombinant protein corresponding to the cytoplasmic domain of the human CSF-1R; purchased Invitrogen Corporation, Carlsbad, Calif; PV3249
T2 sequence (P07333 539-972 limits assumed): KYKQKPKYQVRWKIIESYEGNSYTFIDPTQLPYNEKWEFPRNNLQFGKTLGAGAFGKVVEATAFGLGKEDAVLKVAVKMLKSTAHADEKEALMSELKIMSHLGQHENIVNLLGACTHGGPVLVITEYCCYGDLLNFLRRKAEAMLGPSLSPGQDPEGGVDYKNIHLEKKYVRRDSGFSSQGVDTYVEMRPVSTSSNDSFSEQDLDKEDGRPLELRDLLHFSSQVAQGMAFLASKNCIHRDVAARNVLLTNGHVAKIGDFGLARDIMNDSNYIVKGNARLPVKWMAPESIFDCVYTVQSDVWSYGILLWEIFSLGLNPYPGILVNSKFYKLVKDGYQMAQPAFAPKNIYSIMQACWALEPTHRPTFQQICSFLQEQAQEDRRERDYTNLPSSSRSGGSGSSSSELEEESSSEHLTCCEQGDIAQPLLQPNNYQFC
Summary of the method: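 Kinase reaction used 4 nM recombinant cytoplasmic domain at 1 μM ATP in 50 mM Hepes pH 7.5 with 5 mM MgCl2, 10 mM MnCl2, 0.1% BSA, 1.0 mM DTT and 0.01% Tween 80. Compounds were serially diluted 3-fold from 25 μM. Phosphopeptide was detected by AlphaScreen, PT66 anti-phosphotyrosine acceptor plus streptavidin donor beads, read after overnight incubation.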

kinase domain of cKIT = target: T3, kinase domain of cKIT (Homo sapiens, UniProt P10721); experiment: Inhibition of cKIT kinase signaling in an in vitro biochemical assay (alphascreen); conditions: tested at about 1 μM, read-out: cKit percent inhibition
T3 construct: The kinase domain of cKIT was assayed in 50 mM Hepes; purchased Upstate 14-559

[2] = system: MNFS60 (murine AML cells); experiment: Cell viability assay in MCSF dependent MNFS60 cells (Cell Titer Glo); assay type: cell-based; conditions: Mus musculus, tested at about 1 μM, read-out: M-NFS-60 CP percent inhibition
Summary of the method: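 Cells are cultured with 10 ng/ml MCSF and test compound for 72 hrs at 37° C. in 5% CO2. CellTiter-Glo reagent is then added to gauge viable cell number, and EC50s are fitted from triplicates.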

T1 sequence (P09619 600-962 limits assumed): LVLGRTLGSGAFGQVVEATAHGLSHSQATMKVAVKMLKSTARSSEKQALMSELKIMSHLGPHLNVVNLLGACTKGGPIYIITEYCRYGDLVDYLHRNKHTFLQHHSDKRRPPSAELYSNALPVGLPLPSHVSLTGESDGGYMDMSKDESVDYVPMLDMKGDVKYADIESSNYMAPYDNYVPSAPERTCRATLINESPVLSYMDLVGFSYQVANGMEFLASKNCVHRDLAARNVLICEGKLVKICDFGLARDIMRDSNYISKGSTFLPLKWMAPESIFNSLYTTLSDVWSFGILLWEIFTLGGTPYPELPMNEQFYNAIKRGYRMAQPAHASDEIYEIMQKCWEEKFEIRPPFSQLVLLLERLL
T3 sequence (P10721 589-937 limits assumed): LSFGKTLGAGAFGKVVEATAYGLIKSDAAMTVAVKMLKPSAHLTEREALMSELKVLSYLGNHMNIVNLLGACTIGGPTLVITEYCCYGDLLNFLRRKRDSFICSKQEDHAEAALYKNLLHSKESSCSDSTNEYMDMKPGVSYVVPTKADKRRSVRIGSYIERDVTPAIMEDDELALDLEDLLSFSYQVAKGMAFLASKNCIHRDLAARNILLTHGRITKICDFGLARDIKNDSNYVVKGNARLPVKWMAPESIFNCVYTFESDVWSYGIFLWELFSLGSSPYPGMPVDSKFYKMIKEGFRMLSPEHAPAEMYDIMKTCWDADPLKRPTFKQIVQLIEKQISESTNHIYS

| SMILES | inhibition at 1 µM (kinase domain of PDGFRβ) [%] | inhibition at 1 µM [1] [%] | inhibition at 1 µM (kinase domain of cKIT) [%] | inhibition at 1 µM ([2]; MCSF dependent MNFS60 cells) [%] | inhibition at 1 µM ([2]; MNFS60 cells) [%] | inhibition at 1 µM (kinase domain of PDGFRβ; compounds of Table 3) [%] | inhibition at 1 µM ([1]; compounds of Table 3) [%] | inhibition at 1 µM (kinase domain of cKIT; compounds of Table 3) [%] | inhibition at 1 µM ([2]; compounds of Table 3) [%] |
| --- | --- | --- | --- | --- | --- | --- | --- | --- | --- |
| CNC(=O)c1cc(Oc2ccc3nc(N[C@H]4[C@H]5CC[C@H](C5)[C@H]4CO)sc3c2)ccn1 [Example 325, 4-(2-((1S,3R,4R)-3-(hydroxymethyl)bicyclo[2.2.1]heptan-2-ylamino)benzo[d]thiazol-6-yloxy)-N-methylpicolinamide] | 43 | 100 | 27 | 66 |  |  |  |  |  |
| CNC(=O)c1cc(Oc2ccc3nc(NCc4cc(OC)ccc4OC)oc3c2)ccn1 [Compound 83, 4-[2-(2,5-Dimethoxy-benzyl-amino)-benzooxazol-6-yloxy]-pyridine-2-carboxylic acid methylamide] | 0 | 99 | 12 |  | 26 |  |  |  |  |
| CNC(=O)c1cc(Oc2ccc3nc(NCc4ccccc4N4CCCCC4)sc3c2)ccn1 [Compound 153, 4-[2-(2-Piperidin-1-yl-benzylamino)-benzothiazol-6-yloxy]-pyridine-2-carboxylic acid methylamide] | 91 | 97 | 0 |  | 63 |  |  |  |  |
| Nc1ncc(-c2cc(Oc3ccc4nc(N[C@@H]5CCCC[C@H]5O)sc4c3)ccn2)cc1C(F)(F)F [Example 282, (1R,2R)-2-(6-(6'-amino-5'-(trifluoromethyl)-2,3'-bipyridin-4-yloxy)benzo[d]thiazol-2-ylamino)cyclohexanol] |  |  |  |  |  | 7 | 99 | 23 | 22 |
| CCc1nc(-c2cc(Oc3ccc4nc(N[C@@H](C)C5CCCCC5)sc4c3)ccn2)[nH]c1CC [Example 272, (S)-N-(1-cyclohexylethyl)-6-(2-(4,5-diethyl-1H-imidazol-2-yl)pyridin-4-yloxy)benzo[d]thiazol-2-amine] |  |  |  |  |  | 7 | 98 | 24 | 38 |
| CNC(=O)c1cc(Oc2ccc3nc(N[C@H]4CCC[C@@H]4O)sc3c2)ccn1 [Example 320, 4-(2-((1S,2S)-2-hydroxycyclopentylamino)benzo[d]thiazol-6-yloxy)-N-methylpicolinamide] | 20 | 100 | 16 | 25 |  |  |  |  |  |
| CC(C)CCNc1nc2ccc(Oc3ccnc4ccccc34)cc2s1 [Example 253, N-isopentyl-6-(quinolin-4-yloxy)benzo[d]thiazol-2-amine] |  |  |  |  |  | 6 | 100 | 100 | 86 |
| CNC(=O)c1cc(Oc2ccc3nc(NCCc4cnccn4)sc3c2)ccn1 [Compound 148] |  |  |  |  |  | 2 | 96 | 23 | 1 |
| CNc1cc(Oc2ccc3nc(NCC4CCCCC4)sc3c2)ccn1 [Example 338, N-(cyclohexylmethyl)-6-(2-(methylamino)pyridin-4-yloxy)benzo[d]thiazol-2-amine] | 52 | 100 | 51 | 44 |  |  |  |  |  |
| CNC(=O)c1cc(Oc2ccc3nc(NCc4ccncc4)oc3c2)ccn1 [Compound 57, 4-{2-[(Pyridin-4-ylmethyl)-amino]-benzooxazol-6-yloxy}-pyridine-2-carboxylic acid methylamide] | 3 | 97 | 35 |  | 35 |  |  |  |  |
| CNC(=O)c1cc(Oc2ccc3nc(NCc4c(Cl)cccc4Cl)sc3c2)ccn1 [Compound 158, 4-[2-(2,6-Dichloro-benzylamino)-benzothiazol-6-yloxy]-pyridine-2-carboxylic acid methylamide] | 2 | 99 | 11 |  | 1 |  |  |  |  |
| CNC(=O)c1cc(Oc2ccc3nc(NCc4ccc(F)cc4F)oc3c2)ccn1 [Compound 71, 4-[2-(2,4-Difluoro-benzylamino)-benzooxazol-6-yloxy]-pyridine-2-carboxylic acid methylamide] | 0 | 100 | 27 |  | 11 |  |  |  |  |
| CNc1cc(Oc2ccc3nc(N[C@@H]4CCCC[C@H]4O)sc3c2)ccn1 [Example 368, (1R,2R)-2-(6-(2-(methylamino)pyridin-4-yloxy)benzo[d]thiazol-2-ylamino)cyclohexanol] | 8 | 100 | 24 | 12 |  |  |  |  |  |
| CNC(=O)c1cc(Oc2ccc3nc(N[C@H]4CCC[C@H]4O)sc3c2)ccn1 [Example 322, 4-(2-((1S,2R)-2-hydroxycyclopentylamino)benzo[d]thiazol-6-yloxy)-N-methylpicolinamide] | 11 | 99 | 18 | 21 |  |  |  |  |  |
| c1ccc2c(Oc3ccc4nc(NCCN5CCOCC5)sc4c3)ccnc2c1 [Example 255, N-(2-morpholinoethyl)-6-(quinolin-4-yloxy)benzo[d]thiazol-2-amine] |  |  |  |  |  | 8 | 100 | 92 | 69 |
| CNC(=O)c1cc(Oc2ccc3nc(NCc4cc(F)ccc4OC)oc3c2)ccn1 [Compound 115, 4-[2-(5-Fluoro-2-methoxy-benzylamino)-benzooxazol-6-yloxy]-pyridine-2-carboxylic acid methylamide] | 18 | 99 | 88 |  | 21 |  |  |  |  |
| C[C@H](Nc1nc2ccc(Oc3ccnc(C(=O)NN(C)C)c3)cc2s1)C1CCCCC1 [Example 289, (S)-4-(2-(1-cyclohexylethylamino)benzo[d]thiazol-6-yloxy)-N',N'-dimethylpicolinohydrazide] |  |  |  |  |  | 2 | 99 | 28 | 0 |
| CNC(=O)c1cc(Oc2ccc3nc(N[C@@H]4CCC[C@H]4O)sc3c2)ccn1 [Example 324, 4-(2-((1R,2R)-2-hydroxycyclopentylamino)benzo[d]thiazol-6-yloxy)-N-methylpicolinamide] | 19 | 99 | 21 | 15 |  |  |  |  |  |
| COCCNc1cc(Oc2ccc3nc(NCC4CCCCC4)sc3c2)ccn1 [Example 343, N-(cyclohexylmethyl)-6-(2-(2-methoxyethylamino)pyridin-4-yloxy)benzo[d]thiazol-2-amine] | 28 | 100 | 59 | 57 |  |  |  |  |  |
| C[C@@H](Nc1nc2ccc(Oc3ccnc4ccccc34)cc2s1)C1CCCCC1 [Example 243, (R)-N-(1-cyclohexylethyl)-6-(quinolin-4-yloxy)benzo[d]thiazol-2-amine] |  |  |  |  |  | 69 | 100 | 100 | 76 |
| CNC(=O)c1cc(Oc2ccc3nc(NCc4ccccc4Br)oc3c2)ccn1 [Compound 72, 4-[2-(2-Bromo-benzylamino)-benzooxazol-6-yloxy]-pyridine-2-carboxylic acid methylamide] | 0 | 100 | 65 |  | 48 |  |  |  |  |
| CNC(=O)c1cc(Oc2ccc3nc(NCCc4ccccn4)sc3c2)ccn1 [Example 314, N-methyl-4-(2-(2-(pyridin-2-yl)ethylamino)benzo[d]thiazol-6-yloxy)picolinamide] | 12 | 99 | 13 | 20 |  |  |  |  |  |
| CNC(=O)c1cc(Oc2ccc3nc(NCC(O)COc4ccccc4)sc3c2)ccn1 (stereo not drawn) [Compound 124] |  |  |  |  |  | 10 | 99 | 0 | 18 |
| O[C@@H]1CCCC[C@H]1Nc1nc2ccc(Oc3ccnc(N4CCOCC4)c3)cc2s1 [Cmpd 175, (1R,2R)-2-(6-(2-morpholinopyridin-4-yloxy)benzo[d]thiazol-2-ylamino)cyclohexanol] |  |  |  |  |  | 1 | 100 | 11 | 17 |
